From patent US20220118121A1, “PROSTATE SPECIFIC MEMBRANE ANTIGEN (PSMA) LIGANDS WITH IMPROVED TISSUE SPECIFICITY” (Ruprecht-Karls-Universität Heidelberg, priority 2019, published 2022)
Each block holds one molecule with its values, some of them ahead of it. Where a SMILES comes first, the peptide text is derived from it. [ ]: non-standard residue; d: D form. The star is where a group is joined. DOTA = O=C(O)CN1CCN(CC(=O)O)CCN(CC(=O)*)CCN(CC(=O)O)CC1; EuK = O=C(O)CC[C@H](NC(=O)N[C@@H](CCCCN*)C(=O)O)C(=O)O; 2Nal = N[C@@H](Cc1ccc2ccccc2c1)C(=O)O; Trx = NC[C@H]1CC[C@H](C(=O)O)CC1

Columns and labels:
PSMA+ LNCaP cells = assay: cell surface binding and internalization of radiolabeled compounds; assay type: cell-based; conditions: for Specific Cell Surface Binding / Specific Internalization / Cell Surface binding / Internalization: 68Ga-labeled; for Specific cell surface bound / Specific internalized: 177Lu-labeled, LNCaP cells
Protocol: (§1) PSMA^+ LNCaP cells (ATCC CRL-1740) were cultured in RPMI medium. Cells were grown at 37° C. in humidified air with 5% C02 and were harvested using trypsin-ethylenediaminetetraacetic acid.
(§2) The competitive cell binding assay and internalization experiments were performed according to Eder M et al. (2012), Bioconjug Chem 23(4):688.
For internalization experiments, 10^5 cells per well were seeded in poly-L-lysine coated 24-well cell culture plates 24 h before incubation. After washing, the cells were incubated with 30 nM of the ^68Ga- or ^177Lu-radiolabeled compound for 45 min at 37° C. and at 4° C., respectively. Cellular uptake was terminated by washing 3 times with 1 mL of ice-cold PBS. To remove surface-bound radioactivity, cells were incubated twice with 0.5 mL glycine-HCl in PBS (50 mM, pH=2.8) for 5 min. The cells were washed with 1 mL of ice-cold PBS and lysed using 0.3 N NaOH (0.5 mL). The surface-bound and the internalized fractions were measured in a gamma counter. The cell uptake was calculated as percent of the initially added radioactivity bound to 10^5 cells [% ID/10^5 cells].

PSMA = target: T1, PSMA (Homo sapiens, UniProt Q04609); assay: competitive cell binding assay vs 68Ga-labeled PSMA-10 on LNCaP cells; conditions: LNCaP cells, 0.8 nM 68Ga-PSMA-10 radioligand; read-out: Specific Binding Affinity IC50
T1 construct: host or cells: LNCaP cells
T1 sequence (Q04609 whole entry): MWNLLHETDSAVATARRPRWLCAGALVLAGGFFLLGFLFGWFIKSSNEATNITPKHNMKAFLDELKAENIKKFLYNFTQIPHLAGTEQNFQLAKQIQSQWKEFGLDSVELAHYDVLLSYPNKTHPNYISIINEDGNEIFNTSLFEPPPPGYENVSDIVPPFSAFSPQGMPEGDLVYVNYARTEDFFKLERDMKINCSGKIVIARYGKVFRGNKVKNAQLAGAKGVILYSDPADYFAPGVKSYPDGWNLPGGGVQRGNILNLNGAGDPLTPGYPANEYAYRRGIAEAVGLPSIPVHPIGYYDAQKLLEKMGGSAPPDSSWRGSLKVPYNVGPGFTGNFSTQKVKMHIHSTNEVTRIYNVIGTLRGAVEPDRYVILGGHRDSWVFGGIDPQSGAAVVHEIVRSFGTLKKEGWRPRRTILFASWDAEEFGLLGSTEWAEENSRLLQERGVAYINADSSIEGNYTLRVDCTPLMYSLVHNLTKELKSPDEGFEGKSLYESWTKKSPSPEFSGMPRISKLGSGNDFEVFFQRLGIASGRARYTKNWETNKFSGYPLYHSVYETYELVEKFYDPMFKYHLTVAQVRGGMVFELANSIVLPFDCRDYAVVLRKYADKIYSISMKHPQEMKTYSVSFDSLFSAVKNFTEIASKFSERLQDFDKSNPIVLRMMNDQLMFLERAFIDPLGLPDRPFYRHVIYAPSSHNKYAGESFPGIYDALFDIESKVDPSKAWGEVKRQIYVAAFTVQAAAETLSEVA
Protocol: as §1, §2
Briefly, the cells (10^5 per well) were incubated with a 0.8 nM solution of ^68Ga-labeled radioligand [Glu-urea-Lys(Ahx)]2-HBED-CC (PSMA-10, precursor ordered from ABX, Radeberg, Germany) in the presence of 12 different concentrations of analyte (0-5000 nM, 100 μL/well). After incubation, the mixture was removed and the wells were washed 3 times with PBS using a multiscreen vacuum manifold (Millipore, Billerica, Mass.). Cell-bound radioactivity was measured using a gamma counter (Packard Cobra II, GMI, Minnesota, USA). The 50% inhibitory concentration (IC50) values were calculated by fitting the data using a nonlinear regression algorithm (GraphPad Software).

IC50 (PSMA): 54 ± 20.9 nM
SMILES: O=C(O)CC[C@H](NC(=O)N[C@@H](CCCCNC(=O)[C@H](Cc1ccc2ccccc2c1)NC(=O)[C@H](Cc1c[nH]cn1)NC(=O)[C@H](Cc1c[nH]cn1)NC(=O)[C@H](Cc1c[nH]cn1)NC(=O)[C@H]1CC[C@H](CNC(=O)CN2CCN(CC(=O)O)CCN(CC(=O)O)CCN(CC(=O)O)CC2)CC1)C(=O)O)C(=O)O [PS10, DOTA-CHx-(H)3-2NaI-PSMA] ({DOTA-Trx}-HHH[2Nal]-EuK)
Specific Cell Surface Binding (PSMA+ LNCaP cells): 0.55 ± 0.08 % ID/10^5 cells
Specific Internalization (PSMA+ LNCaP cells): 0.44 ± 0.08 % ID/10^5 cells
Cell Surface binding (PSMA+ LNCaP cells; blocked): 0.027 ± 0.006 % ID/10^5 cells
Internalization (PSMA+ LNCaP cells; blocked): 0.083 ± 0.006 % ID/10^5 cells
Cell Surface binding (PSMA+ LNCaP cells; not blocked): 0.580 ± 0.046 % ID/10^5 cells
Internalization (PSMA+ LNCaP cells; not blocked): 0.523 ± 0.078 % ID/10^5 cells

IC50 (PSMA): 56 ± 7.7 nM
SMILES: O=C(O)CC[C@H](NC(=O)N[C@@H](CCCCNC(=O)[C@H](Cc1c[nH]cn1)NC(=O)[C@H](CCC(=O)O)NC(=O)[C@H](Cc1c[nH]cn1)NC(=O)[C@H](CCC(=O)O)NC(=O)[C@H](Cc1c[nH]cn1)NC(=O)[C@H](CCC(=O)O)NC(=O)[C@H](Cc1ccc2ccccc2c1)NC(=O)[C@H]1CC[C@H](CNC(=O)CN2CCN(CC(=O)O)CCN(CC(=O)O)CCN(CC(=O)O)CC2)CC1)C(=O)O)C(=O)O [PS-1, DOTA-CHx-2NaI-(EH)3-PSMA] ({DOTA-Trx}-[2Nal]EHEHEH-EuK)
Specific Cell Surface Binding (PSMA+ LNCaP cells): 1.09 ± 0.17 % ID/10^5 cells
Specific Internalization (PSMA+ LNCaP cells): 0.46 ± 0.11 % ID/10^5 cells
Cell Surface binding (PSMA+ LNCaP cells; blocked): 0.069 ± 0.013 % ID/10^5 cells
Internalization (PSMA+ LNCaP cells; blocked): 0.212 ± 0.037 % ID/10^5 cells
Cell Surface binding (PSMA+ LNCaP cells; not blocked): 1.162 ± 0.183 % ID/10^5 cells
Internalization (PSMA+ LNCaP cells; not blocked): 0.676 ± 0.155 % ID/10^5 cells
Specific cell surface bound (PSMA+ LNCaP cells): 6.84 ± 0.06 % ID/10^5 cells
Specific internalized (PSMA+ LNCaP cells): 4.32 ± 0.03 % ID/10^5 cells

IC50 (PSMA): 37 ± 11.4 nM
SMILES: O=C(O)CC[C@H](NC(=O)N[C@@H](CCCCNC(=O)[C@H](Cc1ccc2ccccc2c1)NC(=O)[C@H]1CC[C@H](CNC(=O)[C@H](Cc2c[nH]cn2)NC(=O)[C@H](CCC(=O)O)NC(=O)[C@H](Cc2c[nH]cn2)NC(=O)[C@H](CCC(=O)O)NC(=O)[C@H](Cc2c[nH]cn2)NC(=O)[C@H](CCC(=O)O)NC(=O)CN2CCN(CC(=O)O)CCN(CC(=O)O)CCN(CC(=O)O)CC2)CC1)C(=O)O)C(=O)O [PS-2, DOTA-(EH)3-CHx-2NaI-PSMA] ({DOTA}-EHEHEH[Trx][2Nal]-EuK)
Specific Cell Surface Binding (PSMA+ LNCaP cells): 1.27 ± 0.15 % ID/10^5 cells
Specific Internalization (PSMA+ LNCaP cells): 0.61 ± 0.15 % ID/10^5 cells
Cell Surface binding (PSMA+ LNCaP cells; blocked): 0.060 ± 0.017 % ID/10^5 cells
Internalization (PSMA+ LNCaP cells; blocked): 0.187 ± 0.032 % ID/10^5 cells
Cell Surface binding (PSMA+ LNCaP cells; not blocked): 1.333 ± 0.127 % ID/10^5 cells
Internalization (PSMA+ LNCaP cells; not blocked): 0.797 ± 0.122 % ID/10^5 cells
Specific cell surface bound (PSMA+ LNCaP cells): 9.55 ± 1.61 % ID/10^5 cells
Specific internalized (PSMA+ LNCaP cells): 6.00 ± 0.71 % ID/10^5 cells

IC50 (PSMA): 43.1 ± 9.63 nM
SMILES: O=C(O)CC[C@H](NC(=O)N[C@@H](CCCCNC(=O)[C@H](Cc1ccc2ccccc2c1)NC(=O)[C@H](Cc1c[nH]cn1)NC(=O)[C@H](CCC(=O)O)NC(=O)[C@H](Cc1c[nH]cn1)NC(=O)[C@H](CCC(=O)O)NC(=O)[C@H](Cc1c[nH]cn1)NC(=O)[C@H](CCC(=O)O)NC(=O)[C@H]1CC[C@H](CNC(=O)CN2CCN(CC(=O)O)CCN(CC(=O)O)CCN(CC(=O)O)CC2)CC1)C(=O)O)C(=O)O [PS-3, DOTA-Chx-(EH)3-2NaI-PSMA] ({DOTA-Trx}-EHEHEH[2Nal]-EuK)
Specific Cell Surface Binding (PSMA+ LNCaP cells): 0.84 ± 0.03 % ID/10^5 cells
Specific Internalization (PSMA+ LNCaP cells): 0.24 ± 0.02 % ID/10^5 cells
Cell Surface binding (PSMA+ LNCaP cells; blocked): 0.183 ± 0.025 % ID/10^5 cells
Internalization (PSMA+ LNCaP cells; blocked): 0.317 ± 0.025 % ID/10^5 cells
Cell Surface binding (PSMA+ LNCaP cells; not blocked): 1.023 ± 0.140 % ID/10^5 cells
Internalization (PSMA+ LNCaP cells; not blocked): 0.557 ± 0.042 % ID/10^5 cells
